Source: patent US10670605B2, “Cysteine reactive probes and uses thereof” (The Scripps Research Institute, priority 2015, dated 2020)

Experiments:
LRBA C2675 (P50851) = LRBA C2675 (P50851) (Homo sapiens, UniProt P50851); experiment: Competitive isoTOP-ABPP, cell lysates; type: binding; settings: 500 μM, invitro, ramos
DDX59 C414 (Q5T1V6) = target: T1, DDX59 C414 (Q5T1V6) (Homo sapiens, UniProt Q5T1V6); experiment: Competitive isoTOP-ABPP, cell lysates; type: binding; settings: 500 μM
T1 sequence (Q5T1V6 1-619): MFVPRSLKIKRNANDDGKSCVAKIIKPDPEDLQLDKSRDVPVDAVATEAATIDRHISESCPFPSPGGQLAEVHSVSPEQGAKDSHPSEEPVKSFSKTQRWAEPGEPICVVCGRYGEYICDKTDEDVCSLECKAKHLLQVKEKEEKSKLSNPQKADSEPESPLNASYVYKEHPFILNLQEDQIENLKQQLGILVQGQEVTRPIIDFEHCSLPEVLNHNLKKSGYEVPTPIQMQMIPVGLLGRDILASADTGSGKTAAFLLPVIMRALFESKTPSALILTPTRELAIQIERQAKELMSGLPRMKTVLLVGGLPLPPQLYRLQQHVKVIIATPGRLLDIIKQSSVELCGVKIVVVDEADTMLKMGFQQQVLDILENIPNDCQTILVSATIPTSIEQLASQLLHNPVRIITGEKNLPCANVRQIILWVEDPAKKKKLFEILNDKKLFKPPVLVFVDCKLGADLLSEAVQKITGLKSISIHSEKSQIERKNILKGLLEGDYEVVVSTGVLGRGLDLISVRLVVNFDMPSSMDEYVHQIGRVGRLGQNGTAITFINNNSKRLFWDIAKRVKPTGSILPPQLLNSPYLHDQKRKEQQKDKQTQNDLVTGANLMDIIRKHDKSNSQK

EZH2 C503 (Q15910) = EZH2 C503 (Q15910) (Homo sapiens, UniProt Q15910); experiment: Competitive isoTOP-ABPP, cell lysates; type: binding; settings: 500 μM, invitro, ramos
CDK5 C157 (Q00535) = CDK5 C157 (Q00535) (Homo sapiens, UniProt Q00535); experiment: Competitive isoTOP-ABPP, cell lysates; type: binding; settings: 500 μM, invitro, ramos
RRAGC C377 (Q9HB90) = RRAGC C377 (Q9HB90) (Homo sapiens, UniProt Q9HB90); experiment: Competitive isoTOP-ABPP, cell lysates; type: binding; settings: 500 μM
[1] = target: T2, cysteines in MDA-MB-231 and Ramos cells (Homo sapiens, UniProt Q96S55); experiment: Competitive isoTOP-ABPP in situ (fragment-treated cells); type: cell-based; settings: 200 μM, insitu, 231
T2 sequence (Q96S55 1-665): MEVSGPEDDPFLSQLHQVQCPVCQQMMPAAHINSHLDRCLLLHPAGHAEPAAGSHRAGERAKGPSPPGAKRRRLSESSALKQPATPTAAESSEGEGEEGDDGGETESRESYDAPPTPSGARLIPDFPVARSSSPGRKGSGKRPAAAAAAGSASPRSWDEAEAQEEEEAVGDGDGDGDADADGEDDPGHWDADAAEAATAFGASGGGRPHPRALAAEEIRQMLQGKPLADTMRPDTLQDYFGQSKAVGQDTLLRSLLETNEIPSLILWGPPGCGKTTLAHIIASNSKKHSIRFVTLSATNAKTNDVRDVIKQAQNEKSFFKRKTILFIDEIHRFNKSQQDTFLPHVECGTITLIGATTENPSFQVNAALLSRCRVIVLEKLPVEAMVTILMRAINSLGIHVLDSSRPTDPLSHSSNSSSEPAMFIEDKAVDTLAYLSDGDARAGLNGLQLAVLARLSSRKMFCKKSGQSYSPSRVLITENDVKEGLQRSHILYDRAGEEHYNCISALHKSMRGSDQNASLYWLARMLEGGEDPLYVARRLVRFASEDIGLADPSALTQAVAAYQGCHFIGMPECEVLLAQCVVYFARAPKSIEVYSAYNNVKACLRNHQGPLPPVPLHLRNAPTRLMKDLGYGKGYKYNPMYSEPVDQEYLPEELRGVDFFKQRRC

Chain of EZH2 C503 (Q15910) (Q15910 whole entry): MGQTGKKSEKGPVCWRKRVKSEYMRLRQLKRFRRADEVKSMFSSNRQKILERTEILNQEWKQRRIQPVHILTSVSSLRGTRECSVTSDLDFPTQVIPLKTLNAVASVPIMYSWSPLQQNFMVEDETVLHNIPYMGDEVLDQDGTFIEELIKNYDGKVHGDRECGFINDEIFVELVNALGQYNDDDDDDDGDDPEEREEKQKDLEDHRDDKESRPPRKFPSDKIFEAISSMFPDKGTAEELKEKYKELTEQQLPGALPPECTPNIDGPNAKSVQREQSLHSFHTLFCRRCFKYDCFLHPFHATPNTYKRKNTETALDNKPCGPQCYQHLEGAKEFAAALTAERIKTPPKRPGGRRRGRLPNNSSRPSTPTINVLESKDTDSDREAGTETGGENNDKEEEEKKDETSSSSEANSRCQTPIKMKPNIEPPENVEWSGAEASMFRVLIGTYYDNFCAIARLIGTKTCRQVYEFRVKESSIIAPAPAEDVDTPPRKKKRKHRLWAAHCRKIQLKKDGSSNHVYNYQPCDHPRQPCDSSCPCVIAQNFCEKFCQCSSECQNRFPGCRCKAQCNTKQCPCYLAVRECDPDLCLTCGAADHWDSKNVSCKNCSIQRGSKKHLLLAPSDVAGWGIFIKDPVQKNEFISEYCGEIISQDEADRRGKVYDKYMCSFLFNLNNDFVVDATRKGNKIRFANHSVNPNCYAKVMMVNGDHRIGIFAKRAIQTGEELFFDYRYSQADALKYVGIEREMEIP
Chain of EZH2 C503 (Q15910) (O75530 whole entry partner): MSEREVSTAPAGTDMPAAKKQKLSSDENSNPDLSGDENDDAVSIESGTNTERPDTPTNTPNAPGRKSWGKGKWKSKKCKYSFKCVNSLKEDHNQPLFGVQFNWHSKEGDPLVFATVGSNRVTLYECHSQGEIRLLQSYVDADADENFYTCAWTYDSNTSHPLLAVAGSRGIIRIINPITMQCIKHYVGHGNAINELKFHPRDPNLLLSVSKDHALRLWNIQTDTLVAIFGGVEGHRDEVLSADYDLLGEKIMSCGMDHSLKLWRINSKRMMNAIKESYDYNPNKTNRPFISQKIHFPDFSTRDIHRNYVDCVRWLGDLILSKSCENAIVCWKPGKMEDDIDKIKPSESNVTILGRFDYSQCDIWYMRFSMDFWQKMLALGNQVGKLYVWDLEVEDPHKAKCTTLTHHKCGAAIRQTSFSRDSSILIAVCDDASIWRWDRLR
Chain of EZH2 C503 (Q15910) (Q15022 whole entry partner): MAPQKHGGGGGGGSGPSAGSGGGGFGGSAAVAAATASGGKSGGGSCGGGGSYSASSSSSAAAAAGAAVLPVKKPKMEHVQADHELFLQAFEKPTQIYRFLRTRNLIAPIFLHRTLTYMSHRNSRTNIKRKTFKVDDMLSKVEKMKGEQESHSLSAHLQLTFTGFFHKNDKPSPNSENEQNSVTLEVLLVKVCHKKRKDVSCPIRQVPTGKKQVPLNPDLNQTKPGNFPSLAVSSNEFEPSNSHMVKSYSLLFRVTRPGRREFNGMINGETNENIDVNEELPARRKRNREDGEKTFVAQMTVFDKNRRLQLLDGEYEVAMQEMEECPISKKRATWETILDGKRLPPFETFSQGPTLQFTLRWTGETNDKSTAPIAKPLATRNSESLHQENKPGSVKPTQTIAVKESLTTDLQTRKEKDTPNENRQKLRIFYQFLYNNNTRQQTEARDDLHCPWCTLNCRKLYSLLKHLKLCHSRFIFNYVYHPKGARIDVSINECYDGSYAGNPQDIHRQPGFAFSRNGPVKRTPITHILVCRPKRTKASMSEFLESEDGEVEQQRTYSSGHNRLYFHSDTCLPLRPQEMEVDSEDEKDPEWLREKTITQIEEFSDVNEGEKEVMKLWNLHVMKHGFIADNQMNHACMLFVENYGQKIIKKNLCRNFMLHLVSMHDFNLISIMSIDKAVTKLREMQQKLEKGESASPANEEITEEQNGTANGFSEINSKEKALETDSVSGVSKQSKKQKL
Chain of RRAGC C377 (Q9HB90) (Q9HB90 2-399 limits assumed): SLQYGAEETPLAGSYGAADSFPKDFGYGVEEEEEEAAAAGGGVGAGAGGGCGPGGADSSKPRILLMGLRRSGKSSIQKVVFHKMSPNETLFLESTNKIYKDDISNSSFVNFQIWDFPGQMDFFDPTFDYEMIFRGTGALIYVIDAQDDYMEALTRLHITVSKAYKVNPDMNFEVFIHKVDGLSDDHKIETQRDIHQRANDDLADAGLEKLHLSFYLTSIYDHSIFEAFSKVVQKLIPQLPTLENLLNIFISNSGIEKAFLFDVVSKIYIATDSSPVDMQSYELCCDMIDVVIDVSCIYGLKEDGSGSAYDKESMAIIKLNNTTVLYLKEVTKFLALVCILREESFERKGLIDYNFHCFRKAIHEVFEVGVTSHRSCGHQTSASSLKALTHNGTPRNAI
Chain of RRAGC C377 (Q9HB90) (Q7L523 whole entry partner, the tested form may be a part): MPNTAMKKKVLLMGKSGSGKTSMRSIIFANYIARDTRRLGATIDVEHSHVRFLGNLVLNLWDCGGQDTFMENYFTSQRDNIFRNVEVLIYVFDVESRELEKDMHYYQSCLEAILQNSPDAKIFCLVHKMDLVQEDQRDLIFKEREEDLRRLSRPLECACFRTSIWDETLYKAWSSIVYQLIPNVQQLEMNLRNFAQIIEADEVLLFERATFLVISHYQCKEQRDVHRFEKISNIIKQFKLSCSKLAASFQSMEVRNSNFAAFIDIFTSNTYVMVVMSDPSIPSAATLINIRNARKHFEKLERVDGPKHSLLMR
Chain of CDK5 C157 (Q00535) (Q00535 whole entry): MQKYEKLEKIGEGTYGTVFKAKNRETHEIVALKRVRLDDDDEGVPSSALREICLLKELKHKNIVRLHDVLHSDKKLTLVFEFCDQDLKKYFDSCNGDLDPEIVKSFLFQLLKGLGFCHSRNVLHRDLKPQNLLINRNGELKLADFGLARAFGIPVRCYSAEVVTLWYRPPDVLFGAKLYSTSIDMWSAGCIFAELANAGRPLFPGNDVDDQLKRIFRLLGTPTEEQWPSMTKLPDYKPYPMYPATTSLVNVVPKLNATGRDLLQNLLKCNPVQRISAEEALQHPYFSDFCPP

R value (DMSO/fragment) (LRBA C2675 (P50851))	R value (DMSO/fragment) (DDX59 C414 (Q5T1V6); in vitro, MDA-MB-231)	R value (DMSO/fragment) (DDX59 C414 (Q5T1V6); invitro, ramos)	R value (DMSO/fragment) (EZH2 C503 (Q15910))	R value (DMSO/fragment) (CDK5 C157 (Q00535))	R value (DMSO/fragment) (RRAGC C377 (Q9HB90); in vitro, MDA-MB-231)	isoTOP-ABPP reactivity Q96S55_C272 WRNIP1 [1]	isoTOP-ABPP ratio, Q5T1V6_C414 (DDX59 C414 (Q5T1V6); invitro, ramos)	isoTOP-ABPP ratio, Q15910_C503 (EZH2 C503 (Q15910))	isoTOP-ABPP ratio, Q9HB90_C377 (RRAGC C377 (Q9HB90); invitro, 231)	isoTOP-ABPP ratio Q96S55_C272 [1]	Compound
3.0	20.0	20.0	2.8	3.2	20.0	2.2					COc1ccc2c(c1)CCCN2C(=O)CCl [compound 2]
							1.2	0.8	2.1	0.7	O=C(CCl)NCCc1c[nH]c2ccccc12 [compound 13]
